Data taken from patent US8754206B2, “Metal (III) complex of biuret-amide based macrocyclic ligand as green oxidation catalyst” (Council of Scientific & Industrial Research, priority 2011, dated 2014).

Legend:
[1] = Acid (HClO4) catalyzed demetalation kinetics; format: physicochemical; details: for k1* (acid catalyzed demetalation): HClO4, 25.0 °C, 350 nm; for half-life at 0.173 mM: aqueous HClO4 solution, pH 1, read-out: t1/2 [pH 1] (converted)
Procedure: Acid induced demetalation kinetics was monitored in kinetic mode of the spectrophotometer (Perkin-Elmer—λ35) using 1.00 cm quartz cell in thermostatted cell housing. In the all kinetic runs IB was kept constant at 0.173 mM while acid concentration was varied from 0.04 to 3.0 M using HClO4. The pseudo first order rate constants (kd) were calculated from the initial rates at 350 nm (one of the absorption peaks of complex IB) and temperature was kept constant at 25.0±0.5° C. For each set, solution pH was measured with a pH meter (LABINDIA, PICO^+) with calibrated electrode.
(§1) a. Kinetic Studies of Add Catalyzed Demetalation. • [Fe^III(biuret-amide)] catalyst are subject to H^+ catalyzed demetalation, following the Equation 1 according to Scheme 2 described above, kd=k1*[H^+]+k2*[H^+]^2+k3*[H^+]^3 where kd is the first order rate constant.

[2] = Stability towards demetallation at different pH and phosphate buffer ionic strengths (UV-VIS); format: physicochemical; details: for demetalation in high concentration phosphate buffer: twenty four hour time scale, 350 nm
Procedure: In yet another embodiment, the stability of (IA) towards demetallation at different pH and ionic strengths is tested to evaluate the operational stability of the complex of instant invention for possible catalytic reactions in water. […] The stability of this complex is also monitored at different ionic strengths at pH 7. […] The phosphate buffer induced demetallation for similar Fe-TAML's have been studied in details. The proposed mechanism for phosphate buffer induced demetallation involves first the co-ordination of the O—PO(OH)2 into the Fe(III) center followed by the intramolecular attack of the H+ onto the amide N-donors. Complex (IA) has an extra —NMe group which is not bonded to the Fe(III) center. The lone pair on this N-atom resides predominantly in the p-orbital and can possibly be the first site for attack of the intramolecular H+ ion, thereby shielding complex (IA) from phosphate induced demetallation.
as §1

[3] = Catalyzed bleaching of Orange II by H2O2; details: for k−1: from kinetic fitting; for k1 / k2: 0.01M Phosphate Buffer
Description: In another embodiment, to study the efficacy of complex (IA) as H2O2 activating catalyst, its activity towards bleaching of the dye Orange II ([4-[(2-hydroxynaphthyl)azo]-benzene sulphonic acid], Na+ salt) is studied. […] The exponential kinetic curve, that holds for at least 6 half-lives (FIG. 8), indicates the fact that (IA) is oxidatively robust. Therefore, little or no degradation of the catalysts takes places during the course of the oxidation. This is because C—H bond of the —NMe group is situated very far away from the proposed Fe-oxo intermediate, thereby reducing the chances of ligand degradation by intramolecular C—H abstraction as has been proposed before for other Fe-TAML, complexes.
Using same Perkin-Elmer spectrophotometer Orange II bleaching kinetics were carried out in 0.01 M phosphate buffer at 485 nm, one of the absorption peaks of Orange II. pH was varied from 7 to 11. Strength of stock solutions of IB and Orange II were (2×10^−5 M) and (2−20×10^−4 M) respectively. Stock solution of hydrogen peroxide of 2×10^−2 M was made by measuring the optical density at 230 nm (ε=72.8 M^−1 cm^−1). Appropriate amount of stock solutions of Orange II, Fe^III-catalyst (IB) and H2O2 were added consecutively in the 1.00 cm quartz cell during experiments. Extinction coefficients for Orange II of 17,800, 23,000 and 19,400 M^−1 cm^−1 at pH 7, 9 and 11 respectively was used to calculate the initial rates of Orange II oxidation, Plot of concentration versus time was taken up to 10-20% of conversion of the dye compared to the total reaction.
b. Kinetics of IA and IB Catalyzed Bleaching of Orange II by H2O2 • Orange II dye has absorption maxima at 485 nm. Natural oxidant H2O2 slowly oxidizes Orange II but in presence of IA and IB huge catalysis was observed. The kinetic data followed the mechanism shown in Scheme 2. The initial rate of the dye bleaching reaction obeyed Michaelis-Menten type Equation (2) which was derived considering the steady state of oxidized [Fe^III(L2X)] species using mass balance equation [Fe^III]T=[Fe^III(L2X)]]+[Oxidized-[Fe^III L2X)]]. From kinetic fitting it was observed k.1˜0 for both IA and IB. […] In Table 3 all the kinetic parameters related to Orange II bleaching are given in details at 25° C. in 0.01 M Phosphate Buffer.

[4] = Catalyzed bleaching of Safranine O by H2O2 and intramolecular inactivation; details: pH 11.0, 25° C.
Description: Safranine O oxidation kinetics was monitored at 525 nm and pH 11 in 0.01 M Phosphate Buffer. The strengths of stock solutions of Safranine O, [Fe^III(biuret-amide)](X═H, NO2) IA, IB complexes and hydrogen peroxide were respectively 2×10^−3 M, 5×10^−5 M and 0.2 M respectively. The extinction coefficient of 3.3×10^4 […] at 525 nm was used to get initial rate in terms of concentration unit (Ms^−1). To get the intramolecular inactivation rate (ki) absorbance change with time was monitored up to complete inactivation of the catalyst. Calculations of rate constants were performed by using Equation (4) and (5).
c. […] For safranine O bleaching, Equation (2) can be simplified to Equation (3) and k2 value can be calculated from the initial rate vs, [Safranine O] data as given in Table 4.
d. Intramolecular Inactivation (ki) Measurement for Safranine O Bleaching at pH 11.0 • The mono exponential intramolecular inactivation rate constant (ki) measurement of the oxidized form of the catalyst was done by the method followed by Collins group. The simplified differential rate law for dye bleaching is given by Equation (3) where Dt and x are total concentrations of the dye and concentration of the bleached dye at time t respectively. Integrating the Equation (3) under the boundary condition x=x∞ at t=t∞ results Equation (4). Equation (5) was derived by replacing the concentration terms by the absorbance term.
From the slope of the double logarithm of the ratio At/A∞ vs. time plot in Equation 6 gives the value of ki (FIG. 13, Table 4). The rate constant k2 is calculated from the intercept of the plot by putting the value of ki.

[5] = Cyclic voltammetry in acetonitrile; format: physicochemical
Description: The σ-donor ability of (Et4N)2.[Fe^III(biuret-amide)] is studied using cyclic voltammetry. […] The peak observed for (IA) (E1/2 at −0.064 V) can most likely be assigned to a one electron oxidation for a Fe(III)/Fe(IV) couple while the other peak might be due to a ligand centered oxidation process (FIG. 6). On comparison with Fe-TAML complex (II) where a —CMe2 group is present instead of a —NMe group in the six membered ring of the complex, the Fe(III)/Fe(IV) couple for (IA) is found to be approximately 230 mV lower.
Infrared spectra were obtained on a Perkin-Elmer FT-IR spectrum GX instrument. LC-MS from Acquity Waters was used for ESI-MS analysis. EPR spectrum was recorded on a Bruker EMX X-band spectrometer operating at a field modulation of 100 kHz, modulation amplitude of 2. G and microwave radiation power of 2 mW. The solid Fe(III) complex was taken in a quartz tube and the spectrum was recorded at 298K. Cyclic voltammetry (CV) was done on an Autolab PGSTAT30 (Eco-Chemie) instrument in a conventional three-electrode test cell with platinum as the working electrode (WE), platinum wire as quasi reference electrode (RE) and a platinum foil as a counter electrode (CE). The measurements were carried out using a solution of 1 mM of (I) in dry acetonitrile with 0.1 M [n-Bu4N]PF6 as the supporting electrolyte. All reversible couples were confirmed by a linear dependence of peak current vs. the square root of the scan rate over the range of 20-200 mVs^−1.

Structure (SMILES) | acid induced demetalation compared to compound II [1] | k1* (acid catalyzed demetalation) [1] | half-life at 0.173 mM [1] | demetalation in high concentration phosphate buffer [2] | k−1 [3] | k1 ([3]; pH 7.0, 25° C.) | k2 ([3]; pH 7.0, 25° C.) | k1 ([3]; pH 9.4, 25° C.) | k2 ([3]; pH 9.4, 25° C.) | k1 ([3]; pH 11.0, 25° C.) | k2 ([3]; pH 11.0, 25° C.) | ki × 10^4 (intramolecular inactivation) [4] | k2 × 10^−3, from Equation (5) [4] | k2 × 10^−3, from initial rates [4] | other results
CN1C(=O)[N]2C(C)(C)C(=O)[N]3c4ccccc4[N]4C(=O)C(C)(C)[N](C1=O)[Fe]342[Cl] [Catalyst 1A, Tetraethyl ammonium 3,3,6,9,9-pentamethyl-1,4,8,11-tetrahydro-1H-benzo[i][1,4,6,8,11]pentaazacyclotridecine-2,5,7,10(6H,11H)-tetraone ferrate] | significantly less | (3.7 ± 0.5) × 10^−3 M^−1s^−1 | 0.4 h | insignificant absorption change | ~0 | (2.0 ± 0.1) × 10^2 M^−1s^−1 | (2.0 ± 0.1) × 10^4 M^−1s^−1 | (2.8 ± 0.2) × 10^3 M^−1s^−1 | (1.12 ± 0.10) × 10^5 M^−1s^−1 | (3.4 ± 0.2) × 10^4 M^−1s^−1 | (1.60 ± 0.10) × 10^5 M^−1s^−1 | 3.7 ± 0.1 s^−1 | 2.0 ± 0.1 M^−1s^−1 | 2.4 ± 0.1 M^−1s^−1 | stability at low pH ([2]; in presence of HClO4): very good stability up to pH 2; half-life ([2]; pH 5, 0.1M phosphate buffer, 25° C.): ~18 h; complex degraded ([2]; pH 5, 0.1M phosphate buffer, 5 hours, 25° C.): 10%; stability at different ionic strengths ([2]; pH 7, phosphate concentration): remarkably stable up to 0.5 M phosphate concentrations; catalytic activity compared with Fe-TAML ([3]; pH 7 and 9): much faster in oxidizing Orange II; bleaching of the dye Orange II by activation of H2O2 ([3]; pH 11): complete bleaching; pseudo first order rate constant kobs ([3]; pH 11): 0.021 ± 0.001 s⁻¹; Fe(III)/Fe(IV) couple lower than Fe-TAML complex (II) [5]: approximately 230 mV; formal reduction potential E1/2, reversible process (Fe(III)/Fe(IV) couple) ([5]; acetonitrile, 0.1 M [n-Bu4N]PF6, vs Fc+/Fc): −0.064 V; E1/2, quasi-reversible process ([5]; acetonitrile, 0.1 M [n-Bu4N]PF6, vs Fe+/Fc): −0.559 V
CN1C(=O)[N]2C(C)(C)C(=O)[N]3c4ccc([N+](=O)[O-])cc4[N]4C(=O)C(C)(C)[N](C1=O)[Fe]342[Cl] [Catalyst 1B, Tetraethyl ammonium 3,3,6,9,9-pentamethyl-13-nitro-1,4,8,11-tetrahydro-1H benzo[i][1,4,6,8,11]pentaazacyclotridecine-2,5,7,10(6H,11H)-tetraone ferrate] | significantly less | (1.41 ± 0.09) × 10^−3 M^−1s^−1 | 1.33 h | insignificant absorption change | ~0 | (1.24 ± 0.10) × 10^3 M^−1s^−1 | (4.1 ± 0.5) × 10^5 M^−1s^−1 | (2.36 ± 0.6) × 10^3 M^−1s^−1 | (4.2 ± 0.4) × 10^5 M^−1s^−1 | (2.4 ± 0.2) × 10^4 M^−1s^−1 | (4.9 ± 0.5) × 10^5 M^−1s^−1 | 3.0 ± 0.2 s^−1 | 3.8 ± 0.3 M^−1s^−1 | 3.9 ± 0.1 M^−1s^−1 | –
